Reference: patent publication US20160045449A1, “Formulations and Methods for Attenuating Respiratory Depression Induced by Opioid Overdose” (Alpharma Pharmaceuticals LLC, priority 2010, published 2016)
Counter-ions that a name gives are not always drawn.

Legend:
[1] = in comparison to a 15 mg dose of hydrocodone
[2] = after oral administration; cited from earlier work
[3] = Example 4: six-way crossover study, naltrexone (12% w/w) on oxycodone-induced euphoria, with pulse oximetry (SpO2); type: in vivo, human
Excerpt: As a safety component of this study, pulse oximetry was monitored routinely to monitor for signs and symptoms of oxycodone-induced respiratory depression.

[4] = cited from earlier work
[5] = cited from earlier work; remark: listed apart in the source
[6] = patients; versus equivalent dose of morphine; cited from earlier work

In the case of CN1CC[C@]23CCCC[C@H]2[C@H]1Cc1ccc(O)cc13 [levorphanol], the equianalgesic calculated dose [1] is reported as 1.8 mg.
For C[C@H]1[C@H]2Cc3ccc(O)cc3[C@]1(C)CCN2CC1CC1 [cyclazocine], the duration of action [2] is listed as about 24 h.
COc1ccc2c3c1O[C@H]1[C@@H](O)C=C[C@H]4[C@@H](C2)N(C)CC[C@@]341 [codeine] showed an equianalgesic calculated dose [1] of 90.0 mg.
For O=C1CC[C@@]2(O)[C@H]3Cc4ccc(O)c5c4[C@@]2(CCN3CC2CC2)[C@H]1O5 [naltrexone], the “effect on euphoric effects of oxycodone” value ([3]; oral oxycodone 60 mg + naltrexone 7.2 mg (12%)) is given as “abating the euphoric effects of oxycodone 60 mg”, the “effect on respiratory depressant effects of oxycodone (SpO2, pulse oximetry)” value ([3]; oral oxycodone 60 mg + naltrexone 7.2 mg (12%) vs oxycodone 60 mg and placebo, opioid-experienced adult subjects) is given as “attenuated the respiratory depressant effects of oxycodone” and the duration of action [2] is given as about 24 h. For the same compound, the “time of absorption following oral administration (rapidly absorbed)” value [4] was at most 1 h and the oral bioavailability ([4]; oral administration) was 5-40%.
In the case of O=C1CC[C@@]2(O)[C@H]3Cc4ccc(O)c5c4[C@@]2(CCN3CC2CC2)[C@H]1O5 [naltrexone HCl, naltrexone hydrochloride], the solubility in water [5] is listed as “about 100 mg/cc”.
For COc1ccc2c3c1O[C@H]1C(=O)CC[C@@]4(O)[C@@H](C2)N(C)CC[C@]314 [oxycodone], the equianalgesic calculated dose [1] is listed as 13.5 mg and the “extent and speed of onset of induced respiratory depression” value [6] is listed as “dose dependent and greater than an equivalent dose of morphine”.
For COc1ccc2c3c1OC1C(=O)CC[C@H]4[C@@H](C2)N(C)CC[C@]314 (stereo partly shown) [hydrocodone, 4,5-epoxy-3-methoxy-17-methylmorphinan-6-one], the equianalgesic calculated dose [1] was 15.0 mg.
Compound CCC(=O)C(CC(C)N(C)C)(c1ccccc1)c1ccccc1 (stereo not shown) [methadone] has an equianalgesic calculated dose [1] of 9.0 mg.
